# Data from patent US4329453A, “Cephalosporin antibiotic” (Glaxo Group Limited, priority 1979, dated 1982).
# Counter-ions that a name gives are not always drawn.
# Experiments:
# stability = assay type: physicochemical
# Source text: These properties render the hydrate of value in pharmaceutical use.
# The salts for use in the preparation of the new pentahydrate according to the invention may be prepared by a process disclosed in the above-mentioned U.K. Patent Specification No. 2025398, i.e. by a process corresponding to the method above mentioned.
# bacteria [1] = settings: as described in U.K. Patent Specification No. 2025398; cited from earlier work
# early clinical results = assay type: in vivo, human
# indole-positive Proteus = test: activity against indole-positive Proteus; assay type: cell-based
# Serratia = test: activity against Serratia; assay type: cell-based
# Pseudomonas aeruginosa = test: experimental infections in mice with Pseudomonas aeruginosa; assay type: in vivo
# Providence = test: activity against Providence; assay type: cell-based
# [2] = distribution and levels in small rodents after subcutaneous injection; assay type: in vivo
# bacteria [3] = test: antibiotic activity in vitro (broad spectrum); assay type: cell-based
# Pseudomonas organisms = test: activity against Pseudomonas organisms; assay type: cell-based
# [4] = pharmacokinetic studies in human volunteers
# [5] = acute toxicity tests in mice; settings: mouse, in vivo
# [6] = especially at elevated temperatures, U.K. Patent Specification No. 2025398; cited from earlier work
# [7] = test system: β-lactamase-producing gram-negative strains; settings: as described in U.K. Patent Specification No. 2025398; cited from earlier work
# nephrotoxicity in rats = assay type: in vivo; settings: dosages of 2.0 g/kg
# gram-negative organisms = settings: as described in U.K. Patent Specification No. 2025398; cited from earlier work
# gram-negative bacteria = test: experimental infections in mice with gram-negative bacteria; assay type: in vivo
# pathogenic bacteria = test: antibiotic properties of the crystalline pentahydrate; assay type: cell-based; settings: compared with compound (I)
smiles,measurement,setting,value
"CC(C)(O/N=C(\C(=O)N[C@@H]1C(=O)N2C(C(=O)[O-])=C(C[n+]3ccccc3)CS[C@H]12)c1csc(N)n1)C(=O)O [bishydrochloride, (6R,7R)-7-[(Z)-2-(2-Aminothizol-4-yl)-2-(2-carboxyprop-2-oxyimino)acetamidol]-3-(1-pyridiniummethyl)ceph-3-em-4-carboxylate bishydrochloride]",stability of crystalline bishydrochloride,stability; crystallised from acetone and formic acid,highly stable
"CC(C)(O/N=C(\C(=O)N[C@@H]1C(=O)N2C(C(=O)[O-])=C(C[n+]3ccccc3)CS[C@H]12)c1csc(N)n1)C(=O)O [ceftazidime, (6R,7R)-7-[(Z)-2-(2-aminothiazol-4-yl)-2-(2-carboxyprop-2-oxyimino)acetamido]-3-(1-pyridiniummethyl)ceph-3-em-4-carboxylate]",broad spectrum antibiotic activity,bacteria [1],broad spectrum antibiotic activity
same,antibiotic properties in the clinic,early clinical results,reproduces in the clinic the excellent antibiotic properties
same,activity against indole-positive Proteus,indole-positive Proteus,excellent activity
same,activity against Serratia,Serratia,excellent activity
same,protection against strains of Pseudomonas aeruginosa,Pseudomonas aeruginosa,excellent protection
same,protection compared with treatment with an aminoglycoside such as amikacin,Pseudomonas aeruginosa; versus amikacin,comparable
same,activity against Providence,Providence,excellent activity
same,distribution in the bodies of small rodents,[2],well distributed
same,levels after subcutaneous injection,[2]; subcutaneous injection,useful therapeutic levels
same,bactericidal action,bacteria [3]; at concentrations close to the minimum inhibitory concentration,rapidly bactericidal
same,effect of human serum on antibacterial properties,bacteria [3]; human serum,not impaired by human serum
same,effect of increased inocula,bacteria [3]; increased inocula,low
same,activity against Pseudomonas organisms,Pseudomonas organisms,excellent activity
same,pharmacokinetic properties,[4],good pharmacokinetic properties
same,serum half-life,[4],long
same,serum levels after injection,[4]; injection,high and long lasting serum levels
same,LD50,[5],> 6000 mg/kg
same,stability of amorphous solid,[6],not particularly satisfactory
same,activity against β-lactamase-producing gram-negative strains,[7],unusually high activity
same,nephrotoxicity,nephrotoxicity in rats,No nephrotoxicity has been observed
same,activity against gram-negative organisms,gram-negative organisms,unusually high activity
same,treatment of experimental infections with gram-negative bacteria,gram-negative bacteria,successfully treated
"CC(C)(O/N=C(\C(=O)N[C@@H]1C(=O)N2C(C(=O)[O-])=C(C[n+]3ccccc3)CS[C@H]12)c1csc(N)n1)C(=O)O [crystalline pentahydrate, (6R, 7R)-7-[(Z)-2-(2-aminothiazol-4-yl)-2-(2-carboxyprop-2-oxyimino)acetamido]-3-(1-pyridiniummethyl)ceph-3-em-4-carboxylate pentahydrate]",crystallinity and stability (quality),stability; new hydrate,superior quality
same,stability on storage,stability; stored at 50° C. for an extended period,remarkably stable
same,antibiotic properties,pathogenic bacteria,exhibits the antibiotic properties of the above-mentioned compound (I)
